# Test results from publication PMC10735184, “Attractant and repellent induce opposing changes in the four-helix bundle ligand-binding domain of a bacterial chemoreceptor” (PLOS Biology, 2023).
# Experiments:
# MCP2201 [1] = molecular target: T1, MCP2201 (Comamonas thiooxydans, UniProt A0ABF7PFR0); assay: ITC; crystal structure at […] Å; analytical ultracentrifugation; assay type: binding
# T1 construct: gene CtCNB1_2201; MCP2201-LBD (residues 58–203), N-terminal His6-tag
# T1 sequence (A0ABF7PFR0 58-203): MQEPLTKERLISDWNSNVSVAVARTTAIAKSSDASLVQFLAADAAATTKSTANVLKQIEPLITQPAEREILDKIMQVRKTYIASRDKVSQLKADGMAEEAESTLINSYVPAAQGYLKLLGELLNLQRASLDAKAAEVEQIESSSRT
# MCP2201 [2] = molecular target: T2, MCP2201 (Comamonas thiooxydans, UniProt A0ABF7PFR0, T108A); assay: ITC; assay type: binding
# T2 construct: gene CtCNB1_2201; MCP2201-LBD (residues 58–203), isolated periplasmic domain
smiles,measurement,setting,value
O=C(O)C[C@H](O)C(=O)O [L-malate],Kd,MCP2201 [1],18.8 ± 7.45 µM
same,Kd,MCP2201 [2],995 ± 438 µM
